Data published in US10183950B2, “Thienopyrimidine inhibitors of atypical protein kinase C” (Cancer Research Technology Limited, priority 2011, dated 2019).
Read-outs that look alike come from different tables or passages of the source.

Biological target: T1, full-length human PKCι (Homo sapiens, UniProt P41743)
T1 construct: Recombinant, full-length human PKCι expressed in Sf21 insect cells is also commercially available; purchased; host or cells: Sf21 insect cells
T1 sequence (P41743 1-596): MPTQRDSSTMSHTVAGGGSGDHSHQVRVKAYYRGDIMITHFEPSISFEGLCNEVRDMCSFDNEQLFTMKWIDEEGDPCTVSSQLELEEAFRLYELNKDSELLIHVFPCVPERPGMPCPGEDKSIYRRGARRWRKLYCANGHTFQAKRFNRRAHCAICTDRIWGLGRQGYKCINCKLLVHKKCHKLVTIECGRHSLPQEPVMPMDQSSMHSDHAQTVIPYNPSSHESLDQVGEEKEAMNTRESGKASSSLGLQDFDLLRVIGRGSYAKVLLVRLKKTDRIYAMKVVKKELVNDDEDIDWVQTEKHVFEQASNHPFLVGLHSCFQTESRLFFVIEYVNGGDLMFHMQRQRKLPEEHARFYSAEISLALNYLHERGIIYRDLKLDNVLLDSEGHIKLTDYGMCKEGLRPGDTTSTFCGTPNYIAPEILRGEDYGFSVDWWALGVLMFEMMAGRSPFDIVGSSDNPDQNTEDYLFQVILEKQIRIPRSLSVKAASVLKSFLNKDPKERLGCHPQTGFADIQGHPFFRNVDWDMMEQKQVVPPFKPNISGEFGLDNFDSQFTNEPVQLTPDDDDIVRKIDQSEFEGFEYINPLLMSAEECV
Test: PKCι IC50 IMAP fluorescence polarisation assay, full-length enzyme
Type: biochemical
Settings: full length PKCi at 15 μM ATP

[1] = read-out: IC50 in IMAP assay against full length PKCi
[2] = read-out: IC50 in IMAP assay against full length PKCi (Activity)

Structure (SMILES)	IC50 [1]	IC50 [2]
N[C@H](CNc1nc(-c2ccncc2)nc2c(-n3cccn3)csc12)Cc1ccccc1 [compound 561, (S)-3-Phenyl-N*1*-(7-pyrazol-1-yl-2-pyridin-4-yl-thieno [3,2-d]pyrimidin-4-yl)-propane-1,2-diamine]	0.1 to 1 µM	–
Fc1cnc(Nc2ccccc2)cc1-c1nc(N[C@@H]2CCNC2)c2sccc2n1 [compound 579, [2-(5-Fluoro-2-phenylamino-pyridin-4-yl)-thieno[3,2-d]pyrimidin-4-yl]-(R)-pyrrolidin-3-yl-amine]	1 to 10 µM	–
Cc1c(C#CC(C)(C)O)sc2c(N[C@@H]3CCNC3)nc(-c3ccncc3)nc12 [compound 502, 2-Methyl-4-[7-methyl-2-pyridin-4-yl-4-((R)-pyrrolidin-3-ylamino)-thieno[3,2-d]pyrimidin-6-yl]-but-3-yn-2-ol]	1 to 10 µM	–
Cc1cccc(Nc2csc3c(N[C@@H]4CCNC4)nc(-c4ccncc4F)nc23)c1 [compound 492, 2-(3-Fluoro-pyridin-4-yl)-N*4*-(R)-pyrrolidin-3-yl-N*7*-m-tolyl-thieno[3,2-d]pyrimidine-4,7-diamine]	10 to 40 µM	–
Cc1sc2c(NC[C@@H](N)Cc3ccccc3)nc(-c3ccncc3)nc2c1-c1c(Cl)cccc1C(F)(F)F [compound 452, (S)-N*1*-[7-(2-Chloro-6-trifluoromethyl-phenyl)-6-methyl-2-pyridin-4-yl-thieno[3,2-d]pyrimidin-4-yl]-3-phenyl-propane-1,2-diamine]	10 to 40 µM	–
Cc1c(-c2ccnn2C)sc2c(N[C@@H]3CCNC3)nc(-c3ccncc3)nc12 [compound 469, [7-Methyl-6-(2-methyl-2H-pyrazol-3-yl)-2-pyridin-4-yl-thieno[3,2-d]pyrimidin-4-l]-(R)-pyrrolidin-3-yl-amine]	10 to 40 µM	–
N[C@H](CNc1nc(-c2ccncc2)nc2c(C#CC3CC3)csc12)Cc1ccccc1 [compound 512, (S)-N*1*-(7-Cyclopropylethynyl-2-pyridin-4-yl-thieno[3,2-d]pyrimidin-4-yl)-3-phenyl-propane-1,2-diamine]	< 0.1 µM	–
CC(C)(O)C#Cc1csc2c(N[C@@H]3CCNC3)nc(-c3ccncc3F)nc12 [compound 519, 4-[2-(3-Fluoro-pyridin-4-yl)-4-((R)-pyrrolidin-3-ylamino)-thieno[3,2-d]pyrimidin-7-yl]-2-methyl-but-3-yn-2-ol]	1 to 10 µM	–
c1ccc(C[C@H]2CN(c3nc(-c4cn[nH]c4)nc4sc5c(c34)CCCC5)CCN2)cc1 [compound 196, 4-((S)-3-Benzyl-piperazin-1-yl)-2-(1H-pyrazol-4-yl)-5,6,7,8-tetrahydro-benzo[4,5]thieno[2,3-d]pyrimidine]	–	1 to 10 µM
Fc1cnccc1-c1nc(N[C@@H]2CCNC2)c2scc(Br)c2n1 [compound 352, [7-Bromo-2-(3-fluoro-pyridin-4-yl)-thieno[3,2-d]pyrimidin-4-yl]-(R)-pyrrolidin-3-yl-amine]	1 to 10 µM	–
C[C@H](O)CNc1cc(-c2nc(N[C@@H]3CCNC3)c3sccc3n2)ccn1 [compound 591, (S)-1-{4-[4-((R)-Pyrrolidin-3-ylamino)-thieno[3,2-d]pyrimidin-2-yl]-pyridin-2-ylamino}-propan-2-ol]	1 to 10 µM	–
CC[C@@H](Nc1cc(-c2nc(N[C@@H]3CCNC3)c3sccc3n2)ccn1)c1ccccc1 [compound 590, {2-[2-((R)-1-Phenyl-propylamino)-pyridin-4-yl]-thieno[3,2-d]pyrimidin-4-yl}-(R)-pyrrolidin-3-yl-amine]	1 to 10 µM	–
NC(=O)CN1CC[C@@H](Nc2nc(-c3ccncc3)nc3ccsc23)C1 [compound 320, 2-[(R)-3-(2-Pyridin-4-yl-thieno[3,2-d]pyrimidin-4-ylamino)-pyrrolidin-1-yl]-acetamide]	10 to 40 µM	–
N[C@@H](CNc1nc(-c2ccncc2)nc2sc3c(c12)CCN(C(=O)c1ccccc1)C3)Cc1ccccc1 [compound 73, [4-((R)-2-Amino-3-phenyl-propylamino)-2-pyridin-4-yl-5,8-dihydro-6H-pyrido[4′,3′:4,5]thieno[2,3-d]pyrimidin-7-yl]-phenyl-methanone]	–	1 to 10 µM
N[C@H](CNc1nc(-c2ccncc2)nc2sc3c(c12)CCSC3)Cc1ccccc1 [compound 80, (S)-3-Phenyl-N*1*-(2-pyridin-4-yl-5,8-dihydro-6H-thiopyrano[4′,3′:4,5]thieno[2,3-d]pyrimidin-4-yl)-propane-1,2-diamine]	–	0.1 to 1 µM
Cc1cc(-c2csc3c(NC[C@@H](N)Cc4ccccc4)nc(-c4ccncc4)nc23)n[nH]1 [compound 569, (S)-N*1*-[7-(5-Methyl-1H-pyrazol-3-yl)-2-pyridin-4-yl-thieno[3,2-d]pyrimidin-4-yl]-3-phenyl-propane-1,2-diamine]	< 0.1 µM	–

Structure (SMILES)	IC50 [1]	IC50 [2]
Fc1cnccc1-c1nc(N[C@@H]2CCNC2)c2scc(Nc3ccccn3)c2n1 [compound 495, 2-(3-Fluoro-pyridin-4-yl)-N*7*-pyridin-2-yl-N*4*- (R)-pyrrolidin-3-yl-thieno[3,2-d]pyrimidine-4,7-diamine]	10 to 40 µM	–
CC(C)(C)c1sc2c(NC[C@@H](N)Cc3ccccc3)nc(-c3ccncc3)nc2c1-c1cccc(N)c1 [compound 444, (S)-N*1*-[7-(3-Amino-phenyl)-6-tert-butyl-2-pyridin-4-yl-thieno[3,2-d]pyrimidin-4-yl]-3-phenyl-propane-1,2-diamine]	10 to 40 µM	–
CCC(C)(C)C(=O)Nc1csc2c(NC[C@@H](N)Cc3ccccc3)nc(-c3ccncc3)nc12 [compound 472, N-[4-((S)-2-Amino-3-phenyl-propylamino)-2-pyridin-4-yl-thieno[3,2-d]pyrimidin-7-yl]-2,2-dimethyl-butyramide]	10 to 40 µM	–
c1cc(-c2nc(N[C@@H]3CCNC3)c3sccc3n2)cc(Nc2ccc(-c3ccsc3)cc2)n1 [compound 617, (R)-Pyrrolidin-3-yl-{2-[2-(4-thiophen-3-yl-phenylamino)-pyridin-4-yl]-thieno[3,2-d]pyrimidin-4-yl}-amine]	0.1 to 1 µM	–
NC(CNc1nc(-c2ccncc2F)nc2c(-c3ccncc3)csc12)Cc1ccccc1 (stereo in doubt) [compound 429, (R)-N*1*-[2-(3-Fluoro-pyridin-4-yl)-7-pyridin-4-yl-thieno[3,2-d]pyrimidin-4-yl]-3-phenyl-propane-1,2-diamine]	1 to 10 µM	–
O=C(Nc1csc2c(N[C@@H]3CCNC3)nc(-c3ccncc3)nc12)C1CCCC1 [compound 475, Cyclopentanecarboxylic acid [2-pyridin-4-yl-4-((R)-pyrrolidin-3-ylamino)-thieno[3,2-d]pyrimidin-7-yl]-amide]	10 to 40 µM	–
Brc1csc2c(NC[C@@H]3CCCN3)nc(-c3ccncc3)nc12 [compound 341, (7-Bromo-2-pyridin-4-yl-thieno[3,2-d]pyrimidin-4-yl)-(S)-1-pyrrolidin-2-ylmethyl-amine]	10 to 40 µM	–
CCCNC(=O)c1csc2c(NC[C@@H](N)Cc3ccccc3)nc(-c3ccncc3)nc12 [compound 551, 4-((S)-2-Amino-3-phenyl-propylamino)-2-pyridin-4-yl-thieno[3,2-d]pyrimidine-7-carboxylic acid propylamide]	0.1 to 1 µM	–
CC(O)CC#Cc1csc2c(NC[C@@H](N)Cc3ccccc3)nc(-c3ccncc3)nc12 (stereo partly drawn) [compound 536, 5-[4-((S)-2-Amino-3-phenyl-propylamino)-2-pyridin-4-yl-thieno[3,2-d]pyrimidin-7-yl]-pent-4-yn-2-ol]	< 0.1 µM	–
COc1cccc(C(=O)Nc2cc(-c3nc(N[C@@H]4CCNC4)c4sccc4n3)ccn2)c1 [compound 596, 3-Methoxy-N-{4-[4-((R)-pyrrolidin-3-ylamino)-thieno[3,2-d]pyrimidin-2-yl]-pyridin-2-yl}-benzamide]	0.1 to 1 µM	–
N[C@@H](CNc1nc(-c2ccncc2)nc2sc3c(c12)CCCC3)Cc1cccc2ccccc12 [compound 52, (R)-3-Naphthalen-1-yl-N*1*- (2-pyridin-4-yl-5,6,7,8-tetrahydro-benzo[4,5]thieno[2,3-d]pyrimidin-4-yl)-propane-1,2-diamine]	–	1 to 10 µM
Cn1nccc1-c1csc2c(NC[C@@H](N)Cc3ccccc3)nc(-c3ccncc3)nc12 [compound 391, (S)-N*1*-[7-(2-Methyl-2H-pyrazol-3-yl)-2-pyridin-4-yl-thieno[3,2-d]pyrimidin-4-yl]-3-phenyl-propane-1,2-diamine]	1 to 10 µM	–
Nc1csc2c(N[C@@H]3CCNC3)nc(-c3ccncc3)nc12 [compound 567, 2-Pyridin-4-yl-N*4*-(R)-pyrrolidin-3-yl-thieno[3,2-d]pyrimidine-4,7-diamine]	1 to 10 µM	–
Cc1sc2c(NC[C@@H](N)Cc3ccccc3)nc(-c3ccncc3)nc2c1C#CC(C)(C)O [compound 504, 4-[4-((S)-2-Amino-3-phenyl-propylamino)-6-methyl-2-pyridin-4-yl-thieno[3,2-d]pyrimidin-7-yl]-2-methyl-but-3-yn-2-ol]	< 0.1 µM	–
Cc1sc2c(N[C@@H]3CCNC3)nc(-c3ccncc3)nc2c1Br [compound 328, (7-Bromo-6-methyl-2-pyridin-4-yl-thieno[3,2-d]pyrimidin-4-yl)-(R)-pyrrolidin-3-yl-amine]	0.1 to 1 µM	–
